Measured values: patent US11584710B2, “Compounds for treating infections” (HORITZONTS TECNOLOGICS HUNGARY KORLÁTOLT FELELOSSÉGU …, priority 2017, dated 2023)

How the values were obtained:
[1] = tested on: A. flavus; assay: Antifungal disk diffusion susceptibility test (CLSI M44); assay type: cell-based; details: Aspergillus flavus, read-out: Activity (mm)
Description: (§1) Filamentous fungi and yeasts strains, from clinical origin, were supplied by Microbiology Service from The Princess Hospital, Madrid. They are detailed in Table IX.
(§2) Filamentous fungi and yeast cells suspensions in distilled water was prepared from a culture of 24-48 h, depending on species, in Sabouraud agar. Each suspension was adjusted to a fixed size inoculum of 1-5×10^8 CFU/ml with a spectrophotometer (Ferraro, MJ National Committee for Clinical Laboratory Standards. 2000).
(§3) Antifungal susceptibility tests were developed following the standardized methodology detailed in document CLSI: M44-4: Method for Antifungal Disk diffusion susceptibility testing of yeasts consisting of disk diffusion on agar Muller-Hinton (supplemented with 2% glucose).

[2] = tested on: A. fumigatus; assay: as above; assay type: cell-based; details: Aspergillus fumigatus, read-out: Activity (mm)
Description: as §1, §2, §3

[3] = tested on: A. niger; assay: as above; assay type: cell-based; details: Aspergillus niger, read-out: Activity (mm)
Description: as §1, §2, §3

[4] = tested on: A. terreus; assay: as above; assay type: cell-based; details: Aspergillus terreus, read-out: Activity (mm)
Description: as §1, §2, §3

[5] = tested on: C. albicans; assay: as above; assay type: cell-based; details: Candida albicans, read-out: Activity (mm)
Description: as §1, §2, §3

[6] = tested on: C. guillermondii; assay: as above; assay type: cell-based; details: read-out: Activity (mm)
Description: as §1, §2, §3

[7] = tested on: C. lusitaniae; assay: as above; assay type: cell-based; details: Clavispora lusitaniae, read-out: Activity (mm)
Description: as §1, §2, §3

[8] = tested on: C. parapsilosis; assay: as above; assay type: cell-based; details: Lodderomyces parapsilosis, read-out: Activity (mm)
Description: as §1, §2, §3

[9] = tested on: C. tropicalis; assay: as above; assay type: cell-based; details: Candida tropicalis, read-out: Activity (mm)
Description: as §1, §2, §3

[10] = tested on: S. cerevisiae; assay: as above; assay type: cell-based; details: Saccharomyces cerevisiae, read-out: Activity (mm)
Description: as §1, §2, §3

[11] = tested on: C. albicans; design: key: I = intermediate activity; S = susceptibility; R = Resistance; details: C. albicans clinical strain; cited from earlier work
[12] = tested on: C. glabrata; design: key: I = intermediate activity; S = susceptibility; R = Resistance; details: C. glabrata clinical strain; cited from earlier work
[13] = tested on: C. tropicalis; design: key: I = intermediate activity; S = susceptibility; R = Resistance; details: C. tropicalis clinical strain; cited from earlier work
[14] = tested on: C. parapsilosis; design: key: I = intermediate activity; S = susceptibility; R = Resistance; details: C. parapsilosis clinical strain; cited from earlier work
[15] = tested on: C. lusitaniae; design: key: I = intermediate activity; S = susceptibility; R = Resistance; details: C. lusitaniae clinical strain; cited from earlier work
[16] = tested on: C. Krusei; design: key: I = intermediate activity; S = susceptibility; R = Resistance; details: C. Krusei clinical strain; cited from earlier work
[17] = tested on: C. guillermondii; design: key: I = intermediate activity; S = susceptibility; R = Resistance; details: C. guillermondii clinical strain; cited from earlier work
[18] = tested on: A. fumigatus; design: key: I = intermediate activity; S = susceptibility; R = Resistance; details: A. fumigatus clinical strain; cited from earlier work
[19] = tested on: A. niger; design: key: I = intermediate activity; S = susceptibility; R = Resistance; details: A. niger clinical strain; cited from earlier work
[20] = tested on: A. terreus; design: key: I = intermediate activity; S = susceptibility; R = Resistance; details: A. terreus clinical strain; cited from earlier work
[21] = tested on: A. flavus; design: key: I = intermediate activity; S = susceptibility; R = Resistance; details: A. flavus clinical strain; cited from earlier work
[22] = tested on: S. cerevisiae; design: key: I = intermediate activity; S = susceptibility; R = Resistance; details: S. cerevisiae clinical strain; cited from earlier work
[23] = tested on: C. difficile; assay: Kirby-Bauer disk diffusion susceptibility test; assay type: cell-based; details: for Antibiotic activity (Table VIII, zone of inhibition): 300 μg
Description: (§4) Bacterial strains, from clinical origin, were supplied by the National Center for Microbiology, Institute of Health Carlos III (Majadahonda, Madrid). They are detailed in Table 1.
(§5) Bacterial cells suspension in sterile saline was prepared from a culture of 24-72 h, depending on bacterial species, in Mueller-Hinton Agar with 5% sheep blood. Each suspension was adjusted to a fixed size inoculum of 1-5×10^8 CFU/ml with a spectrophotometer (Ferraro, MJ National Committee for Clinical Laboratory Standards. 2000).
(§6) Kirby-Bauer disk diffusion susceptibility test protocol was utilized to determine the sensitivity or resistance of pathogenic bacteria against the compounds and others antibiotics. The absence of growth around the disks is an indirect measure of the ability of this compound to inhibit an organism (Kirby, W., et al., Antibiotics Annu. 1956-1957:892). After 18 to 72 hours of incubation at 37° C., with or without CO2, under aerobic or anaerobic conditions, depending on the bacterial species, halo of growth inhibition were obtained and evaluated.
(§7) Interpretation of susceptibility and resistance was based on the presence or absence of a zone of inhibition surrounding the disk. Kirby-Bauer disk diffusion susceptibility test is a common method which uses antibiotic-impregnated wafers to test whether bacteria are affected by antibiotics. The size of the zone of inhibition depends on how effective the antibiotic is at stopping the growth of the bacterium. A stronger antibiotic will create a larger zone, because a lower concentration of the antibiotic is enough to stop growth.
(§8) All compounds were tested at 300 μg/disc.

[24] = tested on: K. pneumoniae; assay: Kirby-Bauer disk diffusion susceptibility test; assay type: cell-based; details: for Antibiotic activity (Table VIII, zone of inhibition): 300 μg
Description: as §4, §5, §6, §7, §8

[25] = tested on: N. carnea; assay: Kirby-Bauer disk diffusion susceptibility test; assay type: cell-based; details: for Antibiotic activity (Table VIII, zone of inhibition): 300 μg
Description: as §4, §5, §6, §7, §8

[26] = tested on: N. cyriacigeorgica; assay: Kirby-Bauer disk diffusion susceptibility test; assay type: cell-based; details: for Antibiotic activity (Table VIII, zone of inhibition): 300 μg
Description: as §4, §5, §6, §7, §8

[27] = tested on: S. pneumoniae; assay: Kirby-Bauer disk diffusion susceptibility test; assay type: cell-based; details: for Antibiotic activity (Table VIII, zone of inhibition): 300 μg
Description: as §4, §5, §6, §7, §8

[28] = tested on: S. pyogenes; assay: Kirby-Bauer disk diffusion susceptibility test; assay type: cell-based; details: 300 μg/disc
Description: as §4, §5, §6, §7, §8

[29] = tested on: T. pulmonis; assay: Kirby-Bauer disk diffusion susceptibility test; assay type: cell-based; details: for Antibiotic activity (Table VIII, zone of inhibition): 300 μg
Description: as §4, §5, §6, §7, §8

[30] = tested on: A. baumannii; assay: Kirby-Bauer disk diffusion susceptibility test; assay type: cell-based; details: 300 μg
Description: as §4, §5, §6, §7, §8

[31] = tested on: E. cloacae; assay: Kirby-Bauer disk diffusion susceptibility test; assay type: cell-based; details: 300 μg
Description: as §4, §5, §6, §7, §8

[32] = tested on: E. coli; assay: Kirby-Bauer disk diffusion susceptibility test; assay type: cell-based; details: 300 μg
Description: as §4, §5, §6, §7, §8

[33] = tested on: E. faecalis; assay: Kirby-Bauer disk diffusion susceptibility test; assay type: cell-based; details: E. foecalis; 300 μg
Description: as §4, §5, §6, §7, §8

[34] = tested on: E. faecium; assay: Kirby-Bauer disk diffusion susceptibility test; assay type: cell-based; details: 300 μg
Description: as §4, §5, §6, §7, §8

[35] = tested on: M. abscessus; assay: Kirby-Bauer disk diffusion susceptibility test; assay type: cell-based; details: 300 μg
Description: as §4, §5, §6, §7, §8

[36] = tested on: P. aeruginosa; assay: Kirby-Bauer disk diffusion susceptibility test; assay type: cell-based; details: 300 μg
Description: as §4, §5, §6, §7, §8

[37] = tested on: S. epidermidis; assay: Kirby-Bauer disk diffusion susceptibility test; assay type: cell-based; details: 300 μg
Description: as §4, §5, §6, §7, §8

SMILES: CC(=O)N1CCN(c2ccc(OCC3COC(Cn4ccnc4)(c4ccc(Cl)cc4Cl)O3)cc2)CC1 (stereo not drawn) [Ket, ketoconazole]
- zone of inhibition at 50 µg/disc [1]: 32 mm
- zone of inhibition at 50 µg/disc [2]: 22 mm
- zone of inhibition at 50 µg/disc [3]: 25 mm
- zone of inhibition at 50 µg/disc [4]: 26 mm
- zone of inhibition at 50 µg/disc [5]: 22 mm
- zone of inhibition at 50 µg/disc [6]: 44 mm
- zone of inhibition at 50 µg/disc [7]: 41 mm
- zone of inhibition at 50 µg/disc [8]: 42 mm
- zone of inhibition at 50 µg/disc [9]: 25 mm
- zone of inhibition at 50 µg/disc [10]: 30 mm
- Susceptibility of the strain [11]: S
- Susceptibility of the strain [12]: S
- Susceptibility of the strain [13]: S
- Susceptibility of the strain [14]: S
- Susceptibility of the strain [15]: S
- Susceptibility of the strain [16]: S
- Susceptibility of the strain [17]: R
- Susceptibility of the strain [18]: S
- Susceptibility of the strain [19]: S
- Susceptibility of the strain [20]: S
- Susceptibility of the strain [21]: S
- Susceptibility of the strain [22]: S

SMILES: NNC(=O)C(=O)NOc1ccccc1 [MSG-196]
- Activity detected (mm) ([23]; 300 μg/disc): 18 mm
- Activity detected (mm) ([24]; 300 μg/disc): 13 mm
- Activity detected (mm) ([25]; 300 μg/disc): 30 mm
- Activity detected (mm) ([26]; 300 μg/disc): 34 mm
- Activity detected (mm) ([27]; 300 μg/disc): 20 mm
- Activity detected (mm) [28]: 20 mm
- Activity detected (mm) ([29]; 300 μg/disc): 22 mm

SMILES: NNC(=O)C(=O)NNc1ccc(OC(=O)c2ccccc2)cc1 [MSG-231]
- Antibiotic activity (Table VIII, zone of inhibition) [30]: 20 mm
- Antibiotic activity (Table VIII, zone of inhibition) [23]: 24 mm
- Antibiotic activity (Table VIII, zone of inhibition) [31]: 10 mm
- Antibiotic activity (Table VIII, zone of inhibition) [32]: 17 mm
- Antibiotic activity (Table VIII, zone of inhibition) [33]: 29 mm
- Antibiotic activity (Table VIII, zone of inhibition) [34]: 27 mm
- Antibiotic activity (Table VIII, zone of inhibition) [24]: 10 mm
- Antibiotic activity (Table VIII, zone of inhibition) [35]: 27 mm
- Antibiotic activity (Table VIII, zone of inhibition) [25]: 38 mm
- Antibiotic activity (Table VIII, zone of inhibition) [26]: 33 mm
- Antibiotic activity (Table VIII, zone of inhibition) [36]: 11 mm
- Antibiotic activity (Table VIII, zone of inhibition) [37]: 33 mm
- Antibiotic activity (Table VIII, zone of inhibition) [27]: 24 mm
- Antibiotic activity (Table VIII, zone of inhibition) [29]: 27 mm

SMILES: COc1ccccc1NNC(=O)C(=O)NN [MSG-235]
- Antibiotic activity (Table VIII, zone of inhibition) [30]: 15 mm
- Antibiotic activity (Table VIII, zone of inhibition) [23]: 20 mm
- Antibiotic activity (Table VIII, zone of inhibition) [31]: 11 mm
- Antibiotic activity (Table VIII, zone of inhibition) [32]: 14 mm
- Antibiotic activity (Table VIII, zone of inhibition) [33]: 25 mm
- Antibiotic activity (Table VIII, zone of inhibition) [34]: 22 mm
- Antibiotic activity (Table VIII, zone of inhibition) [24]: 12 mm
- Antibiotic activity (Table VIII, zone of inhibition) [35]: 23 mm
- Antibiotic activity (Table VIII, zone of inhibition) [25]: 34 mm
- Antibiotic activity (Table VIII, zone of inhibition) [26]: 29 mm
- Antibiotic activity (Table VIII, zone of inhibition) [36]: 11 mm
- Antibiotic activity (Table VIII, zone of inhibition) [37]: 27 mm
- Antibiotic activity (Table VIII, zone of inhibition) [27]: 21 mm
- Antibiotic activity (Table VIII, zone of inhibition) [29]: 24 mm
